Blank lines part the entries; values can stand above or below the molecule they belong to.
Tests used:
[1] = Pharmacokinetics: plasma AUC(0-∞) in sham-operated and 5/6N rats (HPLC-MS/MS); format: in vivo, rat; details: day 4, mean±SEM; for AUC(0-inf): rat, plasma, po
Procedure: Sham-operated rats were divided into four control groups (N = 5–6 rats per group) in the same manner.
Chromatography for all assays was achieved on a Phenomenex Luna Phenyl-Hexyl 100A, 3 µm, 50×2 mm analytical HPLC column with gradient elution. The analytes were detected and quantified by HPLC-MS/MS using electrospray ionization in the positive ion mode.
Pharmacokinetic analysis was performed using non-compartmental methods with ToxKin V 3.5 (LogicaCMG ITS AG, Switzerland). The linear trapezoidal rule was used for AUC calculation. The terminal half-life (t(1/2)) was calculated as t(1/2) = ln2/λ(z) with the terminal elimination rate constant λ(z) as slope of the logarithmic-linear regression line lnC(t) = lnC(0 h) – λ(z) × t of two or three data points in the terminal phase. Extrapolated AUC(rest, tz-∞) was calculated according to Aronson et al, using the calculated concentration and time (t(z)) of the last measurable data point.

5/6N rats = experiment: Markers of kidney function before and after drug administration in 5/6N rats; format: in vivo, rat; details: for effect on concentration of osteopontin: 4 days of treatment vs pre-treatment; for Osteopontin: mean±SEM
Procedure: Creatinine concentration was measured by the Jaffe colorimetric method. Creatinine clearance was estimated as described previously.
For each parameter, the log10-transformed values were analyzed separately using an ANOVA for repeated measurements with factors for experimental group and time as fixed effects. […] These statistical analyses were carried out with the software product SAS (SAS Institute, Cary, NC USA), version 9.2.

[2] = cited from earlier work; for main elimination route: in words
active GLP-1 = experiment: Plasma active GLP-1 levels after linagliptin; format: in vivo, rat
Source text: Figure 5 Active GLP-1 levels in uremic vs sham animals. […] Following the last dose, plasma was taken after the time points indicated and active GLP-1 was detected. Values are given as mean ± SEM. N = 5 sham-operated, and 8-12 rats for 5/6N.
Active (uncleaved, 7–36 amide or 7–37) GLP-1 was detected using the commercially available Multi-Array Assay System (K150JWC) from Meso Scale Discovery following the instructions of the supplier.

uremic rat heart = experiment: Quantitative real-time PCR of BNP and fibrosis markers in uremic rat heart; format: in vivo; details: 7 µmol/kg, 4 days; 5/6N rats; vs untreated 5/6N; in words
Procedure: Total RNA was extracted from 50 mg snap-frozen tissue by homogenization in peqGold Trifast reagent (Peqlab). Residual genomic DNA was removed with Turbo DNAse (Applied Biosystems). The RNA concentration and purity were assayed by spectrophotometry. First-strand cDNA synthesis was performed with random hexamer primer and 1 µg RNA using High Capacity cDNA Reverse Transcription Kit (Applied Biosystems) according to the manufacturer's instruction. (For further detail see Vinon-Zellweger et al.)
Sequences from the Ensemble database and the online available Primer3 software were used to create specific, intron-spanning primers for the target genes. […] Synthesized primers were obtained from Sigma-Aldrich®.
A total of 10 ng cDNA in 5 µl was normally used as template for amplification. An additional 0.5 µl of each primer (5 pmol) and 12.5 µl of Power SYBR Green PCR Master Mix (Applied Biosystems) were added and diluted with water to a volume of 25 µl. The PCR was performed on an Mx3000P thermal cycler (Stratagene). Reaction conditions were 95°C for 10 min, 40 cycles at 95°C for 15 sec, and 60°C for 60 sec, followed by an examination of the melting curve. All samples were analyzed in triplicate. The amplification efficiency of every reaction was checked with the linear regression method. Expression of the gene of interest was divided by the housekeeping gene, glyceraldehyde-3-phosphate dehydrogenase, and expressed as fold-change compared with the corresponding sham-operated rats group.

[3] = 7 umol/kg, 5/6N rats, 7 µmol/kg oral once daily
[4] = 7 umol/kg, sham-operated rats, 7 µmol/kg oral once daily
[5] = after (4 days + 72 h) administration, 7.0 µmol/kg
[6] = vs pre-treatment values, in words
[7] = before drug administration, 7.0 µmol/kg group

AUC(0-inf) [1, 3]: 2.44 ± 0.167 µM·h
AUC(0-inf) [1, 4]: 1.77 ± 0.226 µM·h
change of cystatin C following 4 days of treatment (5/6N rats; [6]): significantly increased
Structure (SMILES): Cn1c(=O)cc(N2CCC[C@@H](N)C2)n(Cc2ccccc2C#N)c1=O [Alogliptin, alogliptin]
effect on concentration of osteopontin (5/6N rats; 7.0 µmol/kg, in words): significantly reduced
Osteopontin (5/6N rats; [5]): 39.1 ± 8.8 ng/mL

Structure (SMILES): N#C[C@@H]1CCCN1C(=O)CNC12CC3CC(CC(O)(C3)C1)C2 [vildagliptin]
main elimination route [2]: via the kidney

AUC(0-inf) [1, 3]: 6.24 ± 0.423 µM·h
AUC(0-inf) [1, 4]: 3.69 ± 0.103 µM·h
change of cystatin C following 4 days of treatment (5/6N rats; [6]): unchanged
Structure (SMILES): N[C@@H](CC(=O)N1CCn2c(nnc2C(F)(F)F)C1)Cc1cc(F)c(F)cc1F [Sitagliptin, sitagliptin]
effect on concentration of osteopontin (5/6N rats; 7.0 µmol/kg, in words): significantly reduced
Osteopontin (5/6N rats; [5]): 33.4 ± 2.4 ng/mL
Osteopontin (5/6N rats; [7]): 48.5 ± 4.4 ng/mL
change of β2-microglobulin concentration following 4 days of treatment (5/6N rats; [6]): increasing the concentration of β2-microglobulin
main elimination route [2]: via the kidney

AUC(0-∞) ([1]; 5/6N rats, 7 µmol/kg oral once daily): 0.7482 ± 0.07452 µM·h
AUC(0-inf) ([1]; 0.5 umol/kg, 5/6N rats, 0.5 µmol/kg oral once daily): 0.258 ± 0.0214 µM·h
AUC(0-inf) ([1]; 0.5 umol/kg, sham-operated rats, 0.5 µmol/kg oral once daily): 0.267 ± 0.0289 µM·h
AUC(0-inf) [1, 3]: 1.25 ± 0.373 µM·h
AUC(0-inf) [1, 4]: 0.748 ± 0.0745 µM·h
AUC(0-∞) ([1]; sham-operated rats, 7 µmol/kg oral once daily): 1.252 ± 0.3788 µM·h
change of cystatin C following 4 days of treatment (5/6N rats; [6]): trend toward decreasing
Structure (SMILES): CC#CCn1c(N2CCC[C@@H](N)C2)nc2c1c(=O)n(Cc1nc(C)c3ccccc3n1)c(=O)n2C [Linagliptin, linagliptin]
effect on concentration of osteopontin (5/6N rats; 0.5 µmol/kg, p<0.001, in words): significantly reduced
effect on concentration of osteopontin (5/6N rats; 7.0 µmol/kg, in words): did not reach statistical significance
Osteopontin (5/6N rats; after (4 days + 72 h) administration, 0.5 µmol/kg): 48.1 ± 3.8 ng/mL
Osteopontin (5/6N rats; [5]): 49.4 ± 10.7 ng/mL
Osteopontin (5/6N rats; before drug administration, 0.5 µmol/kg group): 70.9 ± 4.7 ng/mL
Osteopontin (5/6N rats; [7]): 54.2 ± 10.0 ng/mL
GLP-1 AUC (active GLP-1; 7 μmol/kg, 5/6N): 201 ng·h/L
GLP-1 AUC (active GLP-1; 7 μmol/kg, sham): 108 ng·h/L
GLP-1 AUC (active GLP-1; 5/6N rats, linagliptin 7 µmol/kg daily for 4 days): 201.0 ng·h/L
increase in GLP-1 in 5/6N rats compared with sham-treated rats (active GLP-1; linagliptin 7 µmol/kg, p = 0.01): 2 fold
GLP-1 AUC (active GLP-1; sham rats, linagliptin 7 µmol/kg daily for 4 days): 108.6 ng·h/L
mRNA expression of BNP in uremic rat heart (uremic rat heart): significantly reduced
mRNA expression of Col1α1 in uremic rat heart (uremic rat heart): significantly inhibited
mRNA expression of Col3α1 in uremic rat heart (uremic rat heart): significantly inhibited
mRNA expression of TGF-β1 in uremic rat heart (uremic rat heart): significantly inhibited
mRNA expression of TIMP-1 in uremic rat heart (uremic rat heart): significantly inhibited
eliminated via the urine ([2]; oral): 1–5%
elimination via the bile, share of the orally administered dose ([2]; oral): approximately 85%

— PMC3220703, “Effects of DPP-4 Inhibitors on the Heart in a Rat Model of Uremic Cardiomyopathy” (PLoS ONE, 2011)
